This is an account of results in patent publication US10975056B2 (GlaxoSmithKline Intellectual Property Development Limited, priority 2016, dated 2021).

Counter-ions that a name gives are not always drawn. Like-named read-outs stand apart in the source and are kept apart here.

For assay [1], the target named is DNMT1 (Homo sapiens, UniProt P26358). As to the kind of experiment: DNMT1 biochemical activity, breaklight assay and/or SPA assay.
Assay [2] concerns erythroid progenitor cells (EPCs). As to the kind of experiment: Fetal hemoglobin (HbF) ELISA in day 7 erythroid progenitor cells.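 Also: for fetal hemoglobin induction normalized to vehicle-treated cells.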 It counts as cell-based, human. Conditions: Homo sapiens, Erythroid progenitor cell, HbF ELISA, day 7 EPCs, 5 days; read-out: EPC ELISA (pEC50 category) (converted). In a few lines:
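HbF induction was read by anti-HbF sandwich ELISA (HRP/TMB, OD450) on lysates and normalized to vehicle-treated cells. Cells were day 7 erythroid progenitors derived from human bone marrow CD34+ cells, seeded at 1,000/well with 3 U/mL rhEPO. Compound was given for 5 days at 37 °C at final concentrations […].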

Setting [3] is: binned activity in either the breaklight or the SPA assay, read-out: DNMT1 BioChemical (pIC50 category) (converted).
Where [4] appears, read: breaklight assay and/or SPA assay, repeated experimental runs, read-out: average pIC50 against DNMT1 (converted).
Setting [5] is: binned activity in either the breaklight or the SPA assay.

Chain of DNMT1 (P26358 whole entry, looked up): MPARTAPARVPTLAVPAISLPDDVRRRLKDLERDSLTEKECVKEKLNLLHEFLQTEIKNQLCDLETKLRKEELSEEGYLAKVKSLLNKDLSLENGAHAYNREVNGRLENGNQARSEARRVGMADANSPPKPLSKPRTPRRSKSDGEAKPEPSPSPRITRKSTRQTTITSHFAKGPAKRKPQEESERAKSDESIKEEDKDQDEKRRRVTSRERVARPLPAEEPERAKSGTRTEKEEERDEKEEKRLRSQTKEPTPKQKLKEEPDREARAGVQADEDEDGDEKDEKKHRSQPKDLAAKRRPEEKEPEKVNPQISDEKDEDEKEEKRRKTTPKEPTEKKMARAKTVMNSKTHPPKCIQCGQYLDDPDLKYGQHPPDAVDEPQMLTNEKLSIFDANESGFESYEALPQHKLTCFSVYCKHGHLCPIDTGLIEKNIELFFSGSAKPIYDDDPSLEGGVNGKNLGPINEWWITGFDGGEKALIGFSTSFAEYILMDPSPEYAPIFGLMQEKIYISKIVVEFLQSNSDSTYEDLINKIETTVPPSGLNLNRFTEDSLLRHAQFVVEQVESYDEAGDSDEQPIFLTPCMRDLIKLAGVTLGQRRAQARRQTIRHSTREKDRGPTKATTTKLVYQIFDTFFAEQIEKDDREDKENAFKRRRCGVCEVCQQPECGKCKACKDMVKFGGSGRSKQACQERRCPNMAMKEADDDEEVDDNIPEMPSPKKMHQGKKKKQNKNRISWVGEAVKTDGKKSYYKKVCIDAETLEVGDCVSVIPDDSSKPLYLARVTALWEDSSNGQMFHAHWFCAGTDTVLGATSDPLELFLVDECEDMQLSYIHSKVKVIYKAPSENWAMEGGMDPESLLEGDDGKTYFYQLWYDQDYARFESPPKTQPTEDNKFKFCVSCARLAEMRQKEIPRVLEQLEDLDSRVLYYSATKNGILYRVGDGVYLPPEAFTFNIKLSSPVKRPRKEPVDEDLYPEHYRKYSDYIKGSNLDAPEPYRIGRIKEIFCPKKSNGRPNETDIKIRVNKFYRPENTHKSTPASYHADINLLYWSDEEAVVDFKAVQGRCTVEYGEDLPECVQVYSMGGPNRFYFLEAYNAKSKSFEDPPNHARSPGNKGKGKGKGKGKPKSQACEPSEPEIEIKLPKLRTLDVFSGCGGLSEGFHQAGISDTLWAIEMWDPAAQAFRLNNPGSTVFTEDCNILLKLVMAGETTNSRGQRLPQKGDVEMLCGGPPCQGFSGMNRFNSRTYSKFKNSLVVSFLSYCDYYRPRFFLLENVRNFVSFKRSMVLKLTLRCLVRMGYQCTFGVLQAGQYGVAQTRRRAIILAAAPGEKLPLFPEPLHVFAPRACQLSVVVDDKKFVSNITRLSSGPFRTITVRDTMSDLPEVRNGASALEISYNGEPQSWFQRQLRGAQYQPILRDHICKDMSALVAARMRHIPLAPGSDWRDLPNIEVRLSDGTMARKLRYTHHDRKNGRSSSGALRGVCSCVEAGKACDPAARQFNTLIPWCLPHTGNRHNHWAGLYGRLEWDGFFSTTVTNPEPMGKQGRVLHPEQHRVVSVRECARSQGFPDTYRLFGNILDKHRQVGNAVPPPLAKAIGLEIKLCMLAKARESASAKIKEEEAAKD

`CCc1c(C#N)c(SCc2ccc(CNC(C)=O)cc2)nc(N(C)CCO)c1C#N` [Example 103, N-(4-(((3,5-Dicyano-4-ethyl-6-((2-hydroxyethyl)(methyl)amino)pyridin-2-yl)thio)methyl)benzyl)acetamide]: the IC50 is 1000 to 31600 nM in assay [1] (setting [3]) and at least 1000 nM in assay [1] (setting [4]). The EC50 in assay [2] is 1000 to 31600 nM.
As to `CCc1c(C#N)c(SC(C(N)=O)c2ccccc2)nc(N2CCCN(C)CC2)c1C#N` (single isomer, unassigned; isomer 1) [Example 254, 2-((3,5-dicyano-4-ethyl-6-(4-methyl-1,4-diazepan-1-yl)pyridin-2-yl)thio)-2-phenylacetamide (Isomer 1)], the IC50 in assay [1] (setting [3]) was below 316 nM. In addition, the EC50 in assay [2] was 316 to 1000 nM.
In the case of `CCc1c(C#N)c(SC(C(N)=O)c2ccc(F)cc2)nc(N2CCC(NCC(C)(C)O)CC2)c1C#N` (stereo not drawn) [Example 513, 2-((3,5-dicyano-4-ethyl-6-(4-((2-hydroxy-2-methylpropyl)amino)piperidin-1-yl)pyridin-2-yl)thio)-2-(4-fluorophenyl)acetamide], the IC50 in assay [1] (setting [3]) was below 316 nM. Besides, the EC50 in assay [2] was below 316 nM.
Take `CCc1c(C#N)c(SC(C(N)=O)c2ccccc2)nc(N(C)CC(=O)N2C[C@@H](CO)[C@H](O)C2)c1C#N` (stereo partly drawn) [Example 649]: the “DNMT1 BioChemical (pIC50 category)” value in assay [1] (setting [5]) is reported as “D (Category D: ≥6.5)”. Besides, the “average pIC50 against DNMT1” value in assay [1] (breaklight assay and/or SPA assay, repeated experimental runs) is recorded as above 6.5. Besides, the IC50 in assay [1] (setting [4]) was 126 nM. Besides, the EC50 in assay [2] is 1000 to 31600 nM.
Take `CCc1c(C#N)c(SC(C(N)=O)c2ccccc2)nc(N(C)CCOC(=O)[C@@H](N)C(C)C)c1C#N` (stereo partly drawn) [Example 275]: in assay [1] (setting [3]), the IC50 was 316 to 1000 nM. In assay [2], the EC50 was 316 to 1000 nM.
As to `CCc1c(C#N)c(SC(C(N)=O)c2ccccc2)nc(N2CCC(C(N)=O)CC2)c1C#N` (stereo not drawn) [Example 217, 1-(6-((2-Amino-2-oxo-1-phenylethyl)thio)-3,5-dicyano-4-ethylpyridin-2-yl)piperidine-4-carboxamide], the IC50 in assay [1] (setting [3]) is 316 to 1000 nM. Further, the EC50 in assay [2] is 1000 to 31600 nM.
As for `COc1c(C#N)c(SC(C(N)=O)c2ccccc2)nc(N2CCC(N)CC2)c1C#N` (stereo not drawn) [Example 693, 2-((6-(4-aminopiperidin-1-yl)-3,5-dicyano-4-methoxypyridin-2-yl)thio)-2-phenylacetamide 2,2,2-trifluoroacetate], in assay [1] (setting [5]), the “DNMT1 BioChemical (pIC50 category)” value was “D (Category D: ≥6.5)”. Moreover, the EC50 in assay [2] was below 316 nM.
For the compound `CCc1c(C#N)c(SC(C(N)=O)c2ccccc2)nc(N(C)CCO)c1C#N` (stereo not drawn) [Example 147, 2-(3,5-Dicyano-4-ethyl-6-((2-hydroxyethyl)(methyl)amino)pyridin-2-ylthio)-2-phenylacetamide], in assay [1] (setting [3]), the IC50 was 316 to 1000 nM. For the same compound, the EC50 in assay [2] is 316 to 1000 nM.
For `CCc1c(C#N)c(SC(C(N)=O)c2ccccc2)nc(N(C)CCN2[C@@H](C)CC[C@@H]2C)c1C#N` (stereo partly drawn) [Example 490, 2-((3,5-dicyano-6-((2-((2S,5S)-2,5-dimethylpyrrolidin-1-yl)ethyl)(methyl)amino)-4-ethylpyridin-2-yl)thio)-2-phenylacetamide], the “DNMT1 BioChemical (pIC50 category)” value in assay [1] (setting [5]) is listed as “D (Category D: ≥6.5)”. The EC50 in assay [2] is 316 to 1000 nM.
On the same counts, the results for `CCc1c(C#N)c(SC(C(N)=O)c2ccccc2)nc(N2CCC(N)(CO)CC2)c1C#N` (stereo not drawn) [Example 242, 2-((6-(4-Amino-4-(hydroxymethyl)piperidin-1-yl)-3,5-dicyano-4-ethylpyridin-2-yl)thio)-2-phenylacetamide, Trifluoroacetic Acid Salt] are “D (Category D: ≥6.5)” and below 316 nM.
Turning to `CCc1c(C#N)c(SCc2ccc(CNC(C)=O)cc2)nc(N2CCC(N3CCCC3)CC2)c1C#N` [Example 66, N-(4-((3,5-Dicyano-4-ethyl-6-(4-(pyrrolidin-1-yl)piperidin-1-yl)pyridin-2-ylthio)methyl)benzyl)acetamide trifluoroacetate], the “DNMT1 BioChemical (pIC50 category)” value in assay [1] (setting [5]) is listed as “D (Category D: ≥6.5)”. Besides, the EC50 in assay [2] is below 316 nM.
In the case of `CCc1c(C#N)c(SC(C(N)=O)c2ccccc2)nc(N2CCCN3CCCC3C2)c1C#N` (stereo not drawn) [Example 117, 2-((3,5-Dicyano-4-ethyl-6-(hexahydro-1H-pyrrolo[1,2-a][1,4]diazepin-2(3H)-yl)pyridin-2-yl)thio)-2-phenylacetamide], the IC50 in assay [1] (setting [3]) and in assay [1] (setting [4]) was 316 to 1000 nM in each case. For the same compound, the EC50 in assay [2] was below 316 nM.
Take `CCc1c(C#N)c(SC(C(N)=O)c2ccccc2)nc(N2CCC[C@H](NC3CC3)C2)c1C#N` (stereo partly drawn) [Example 684, 2-((3,5-dicyano-6-((S)-3-(cyclopropylamino)piperidin-1-yl)-4-ethylpyridin-2-yl)thio)-2-phenylacetamide]: the “DNMT1 BioChemical (pIC50 category)” value in assay [1] (setting [5]) is listed as “D (Category D: ≥6.5)”. The EC50 in assay [2] is below 316 nM.
Turning to `CCc1c(C#N)c(SC(C(N)=O)c2ccccc2)nc(N2CCC(NCC(C)(C)OC)CC2)c1C#N` (stereo not drawn) [Example 446, 2-((3,5-dicyano-4-ethyl-6-(4-((2-methoxy-2-methylpropyl)amino)piperidin-1-yl)pyridin-2-yl)thio)-2-phenylacetamide], in assay [1] (setting [5]), the “DNMT1 BioChemical (pIC50 category)” value is listed as “D (Category D: ≥6.5)”. In assay [2], the EC50 is below 316 nM.
For `CCc1c(C#N)c(SC(C(N)=O)c2ccccc2)nc(N(C)CC(=O)N2CCNCC2)c1C#N` (stereo not drawn) [Example 622, 2-((3,5-dicyano-4-ethyl-6-(methyl(2-oxo-2-(piperazin-1-yl)ethyl)amino)pyridin-2-yl)thio)-2-phenylacetamide] the same measures were “D (Category D: ≥6.5)” and below 316 nM.
As to `CCc1c(C#N)c(SCc2ccc(N(C)S(C)(=O)=O)cc2)nc(N2CCCC(CN(C)C)C2)c1C#N` (stereo not drawn) [Example 597, N-(4-(((3,5-dicyano-6-(3-((dimethylamino)methyl)piperidin-1-yl)-4-ethylpyridin-2-yl)thio)methyl)phenyl)-N-methylmethanesulfonamide], in assay [1] (setting [5]), the “DNMT1 BioChemical (pIC50 category)” value is given as “D (Category D: ≥6.5)”. Also, the EC50 in assay [2] is below 316 nM.
As for `N#Cc1c(SC(C(N)=O)c2ccccc2)nc(N2CCC(CN3CCCC3)CC2)c(C#N)c1C1CC1` (stereo not drawn) [Example 39, 2-((3,5-Dicyano-4-cyclopropyl-6-(4-(pyrrolidin-1-ylmethyl)piperidin-1-yl)pyridin-2-yl)thio)-2-phenylacetamide], in assay [1] (setting [5]), the “DNMT1 BioChemical (pIC50 category)” value is reported as “D (Category D: ≥6.5)”. Also, the EC50 in assay [2] was below 316 nM.
With `CCc1c(C#N)c(SC(C(N)=O)c2ccccc2)nc(N(C)CC(=O)N2CCO[C@H](CO)C2)c1C#N` (stereo partly drawn) [Example 646, 2-((3,5-dicyano-4-ethyl-6-((2-((S)-2-(hydroxymethyl)morpholino)-2-oxoethyl)(methyl)amino)pyridin-2-yl)thio)-2-phenylacetamide], the “DNMT1 BioChemical (pIC50 category)” value in assay [1] (setting [5]) is listed as “D (Category D: ≥6.5)”. The EC50 in assay [2] was below 316 nM.
Consider `CCc1c(C#N)c(SC(C(N)=O)c2ccccc2)nc(N2CCC(OCCO)CC2)c1C#N` (stereo not drawn) [Example 224, 2-((3,5-Dicyano-4-ethyl-6-(4-(2-hydroxyethoxy)piperidin-1-yl)pyridin-2-yl)thio)-2-phenylacetamide], for which the IC50 in assay [1] (setting [3]) was 316 to 1000 nM. Moreover, the EC50 in assay [2] is 316 to 1000 nM.
Consider `CCc1c(C#N)c(S[C@@H](C(N)=O)c2ccccc2)nc(N2CC[C@](O)(CO)C2)c1C#N` [Example 689, (R)-2-((3,5-dicyano-4-ethyl-6-((R)-3-hydroxy-3-(hydroxymethyl)pyrrolidin-1-yl)pyridin-2-yl)thio)-2-phenylacetamide], for which the “DNMT1 BioChemical (pIC50 category)” value in assay [1] (setting [5]) is “D (Category D: ≥6.5)”. In assay [2], the EC50 was 1000 to 31600 nM.
For `CCc1c(C#N)c(SC(C(N)=O)c2ccccc2)nc(N2CCCN(CC(=O)OC)CC2)c1C#N` (stereo not drawn) [Example 108, Methyl 2-[4-(6-{[carbamoyl(phenyl)methyl]sulfanyl}-3,5-dicyano-4-ethylpyridin-2-yl)-1,4-diazepan-1-yl]acetate], the IC50 is 1000 to 31600 nM in assay [1] (setting [3]) and at least 1000 nM in assay [1] (setting [4]). The EC50 in assay [2] was 316 to 1000 nM.
As to `CCc1c(C#N)c(SC(C(N)=O)c2ccccc2)nc(N(C)CCNC)c1C#N` (stereo not drawn) [Example 470, 2-((3,5-dicyano-4-ethyl-6-(methyl(2-(methylamino)ethyl)amino)pyridin-2-yl)thio)-2-phenylacetamide], the “DNMT1 BioChemical (pIC50 category)” value in assay [1] (setting [5]) was “D (Category D: ≥6.5)”. Also, the EC50 in assay [2] was below 316 nM.
As to `CCc1c(C#N)c(SC(C(N)=O)c2ccccc2)nc(N(C)CC(=O)N(C)CC2(CO)CC2)c1C#N` (stereo not drawn) [Example 609, 2-((6-((2-amino-2-oxo-1-phenylethyl)thio)-3,5-dicyano-4-ethylpyridin-2-yl)(methyl)amino)-N-((1-(hydroxymethyl)cyclopropyl)methyl)-N-methylacetamide], the “DNMT1 BioChemical (pIC50 category)” value in assay [1] (setting [5]) is “D (Category D: ≥6.5)”. Further, the EC50 in assay [2] was below 316 nM.
On the same counts, the results for `CCc1c(C#N)c(SC(C(N)=O)c2ccccc2)nc(N2CCC(CN3CCCC3)CC2)c1C#N` (stereo not drawn) [Example 445, 2-((3,5-dicyano-4-ethyl-6-(4-(pyrrolidin-1-ylmethyl)piperidin-1-yl)pyridin-2-yl)thio)-2-phenylacetamide] are “D (Category D: ≥6.5)” and below 316 nM.
For `CCc1c(C#N)c(SC(C(N)=O)c2ccccc2)nc(N2CC[C@H](N(C)C)C2)c1C#N` (stereo partly drawn) [Example 539, 2-((3,5-dicyano-6-((S)-3-(dimethylamino)pyrrolidin-1-yl)-4-ethylpyridin-2-yl)thio)-2-phenylacetamide], in assay [1] (setting [5]), the “DNMT1 BioChemical (pIC50 category)” value is “D (Category D: ≥6.5)”. Further, the EC50 in assay [2] was 1000 to 31600 nM.
With `CN(CC(=O)N(CCO)CCO)c1nc(SC(C(N)=O)c2ccccc2)c(C#N)c(C2CC2)c1C#N` (stereo not drawn) [Example 641, 2-((6-((2-amino-2-oxo-1-phenylethyl)thio)-3,5-dicyano-4-cyclopropylpyridin-2-yl)(methyl)amino)-N,N-bis(2-hydroxyethyl)acetamide], in assay [1] (setting [5]), the “DNMT1 BioChemical (pIC50 category)” value is reported as “D (Category D: ≥6.5)”. Besides, the EC50 in assay [2] was 1000 to 31600 nM.
